Consider one compound from US9416145B2, “Compositions and methods for inhibiting activity of hypoxia-inducible transcription factor complex and its use for treatment of tumors” (priority 2012, dated 2016).

The Kd is the concentration at which binding is half-saturated. A word on the EC50: it is the concentration needed to bring the measured effect to its halfway point.

The subject of series [1] is HIF1 inducible promoter (hRE-hCMV-Luc) in MDA-MB-231 cells. The series is described as follows: Luciferase assay of hypoxia-inducible promoter activity. In kind it is cell-based, human. As to conditions: MDA-MB-231 hRE-hCMV-Luc, 300 uM desferrioxamine mesylate 18 h; 200 nM and 600 nM. Here is the method:
We first examined the effect of designed ETPs on activation of the HIF1 inducible promoters. […] In the course of the experiment, cells were incubated with ETPs LS69, LS72, LS75 and DKP compound NP481. In parallel, untreated cells with only vehicle (DMSO) added, were used as controls. Hypoxia conditions were induced by incubating cells with 300 uM desferrioxamine mesylate for 18 h. Cells were harvested, lysed and the levels of luciferase were determined by a luminometer.
Luciferase assays. MDA-MB-231-hRE-Luc cells were maintained in high glucose Dulbecco's Modified Eagles' Medium (DMEM) supplemented with 10%© fetal bovine serum and 0.4 g/L Geneticin (G418 sulfate, RPI Corporation). Cells were plated in 24-well dishes (BD Falcon) at a density of 6×10^4 cells/well using 1 mL of a 6.5×10^4 cell/mL suspension. […] Cells were incubated for 6 h at 37° C. in a humidified atmosphere with 5% CO2. Hypoxia was induced by adding desferrioxamine mesylate (DFO, Sigma) to a final concentration of 300 μM, and cells were incubated for an additional 18 hours. Whole cell lysate was isolated by washing the cells twice with ice cold PBS and then adding 150 μL of Cell Culture Lysis Reagent (CCLR, Promega). Lysate was collected, centrifuged at 13,000 rpm at 4° C., aliquoted, and stored at −80° C. Luciferase assays were conducted by allowing whole cell lysate and Luciferase Assay Reagent (Promega) come to ambient temperature for 1 hour prior to use. Luciferase assays were conducted according to the manufacturer's instructions (Promega) using a Turner TD-20e Luminometer. Relative light intensity measurements were normalized by performing a Bradford assay to determine the protein content of the lysate used in the luciferase assay. Briefly, 50 μL of cell lysate/luciferase assay reagent mix was added to 200 μL of Bradford reagent and 750 μl, of Millipore water in a 1.5 mL cuvette. Protein standards were created in the range of 1 mg/mL to 10 μg/mL using an appropriate amount of a 1 mg/mL BSA solution. Absorbance was measured at 595 nm using a DU-800 spectrophotometer. The experiments were carried out in triplicate. The results are presented in FIG. 6 with the bar graphs represent mean values, and error bars—standard error of the mean value.

Series [2] concerns the target T1, GST-tagged CH1 domain of human p300 (aa residues 323-423) (Homo sapiens, UniProt Q09472).
T1 construct: CH1 domain of human p300 (aa residues 323-423)
As to the kind of experiment: SPR direct binding to immobilized GST-CH1-p300. Set-up: direct binding to GST-CH1-p300 (in words): dose or concentration left out as unconfirmed. The text has this: Prior to undertaking more rigorous biophysical and biological characterization of dimeric ETPs LS69 and LS72, it was important to first characterize its thermodynamic binding properties toward the target, p300 CH1 domain. We conducted SPR experiments in the presence of DTT to mimic the reducing environment that would be found in the intracellular milieu. From the SPR sensorgrams it is clear that both LS69 and LS72 bind directly to the GST-tagged CH1 domain of human p300 (aa residues 323-423) with high affinity.

For a further series, the system named is VEGF mRNA in MCF7 cells. The series is described as follows: Real-time quantitative RT-PCR of VEGF mRNA in MCF7 cells. Type of series: cell-based, human. As to conditions: hypoxic MCF7 cells, 200 nM and 600 nM. Here is the method: We used real-time quantitative RT-PCR assays to determine the relative levels of VEGF mRNA in hypoxic cells treated with ETP compounds and control DKP compound. In parallel, cells treated with vehicle were used as controls. mRNA level of β-glucuronidase gene was used as a control in determining the relative levels of transcription.
MCF7 cells were maintained in RPMI-1640 media (Sigma) supplemented with 10% fetal bovine serum (Irvine Scientific). Cells were plated in 6-well dishes at a density of 2.4×10^5 cells/well using 2 mL of a 1.2×10^5 cell/mL suspension. […] After a 6 h incubation period at 37° C. in a humidified atmosphere with 5% CO2, hypoxia was induced by adding desferrioxamine mesylate (DFO, Sigma) to a final concentration of 300 μM and incubating cells for another 18 hours. Cells were washed twice with ice cold PBS and lysed immediately. Total RNA was isolated with RNeasy kit (Qiagen) according to the manufacturer's instructions and quantified by UV absorbance. The isolated RNA was further treated with DNase I (Ambion, DNAfree kit) to remove any remaining genomic DNA. Reverse transcription was performed with Powerscript II Reverse Transcriptase (Clontech) as recommended by the manufacturer.
Quantitative Reverse Transcript PCR (qRT-PCR) was employed to determine the effect of ETP compounds on VEGF and GLUT1 genes in HeLa cells both under normoxic and hypoxic conditions. For VEGF analysis, the forward primer 5′-AGGCCAGCACATAGGAGAGA-3′ and reverse primer 5′-TTTCCCTTTCCTCGAACTGA-3′ were used to amplify a 104-bp fragment from the 3′-translated region of the gene. For GLUT1 (SLC2A1) analysis we utilized the following sequences to yield a product of 179 bp: forward sequence 5′-TAGAAACATGGTTTTGAAATGC-3′, reverse sequence 5′-GGTAACAGGGATCAAACAGATT-3′. RNA levels were standardized by quantification of the β-glucuronidase as housekeeping gene. […] Data were analyzed with Applied Biosystems Sequence Detection System, version 1.2. […]

Series [3] concerns A549 lung adenocarcinoma cell line. The series is described as follows: MTT cytotoxicity assay in A549 cells. Type of series: cell-based. The following applies: Homo sapiens; A549, 24 h treatment; read-out: EC50 (viability). How it is done:
(§1) FIG. 12 MTT cytotoxicity assay data for LS72 in A549 cell line. […]
(§2) Therefore the treatment of the cells was extended to 48 h in order to better determine its cytotoxicity.
For orientation: Formazan colour is commonly taken as a measure of viable cells.

A short description of series [4]: MTT cytotoxicity assay in A549 cells. The following applies: human, A549 cells; A549, 48 h treatment, serum free F-12K medium. Type of series: cell-based. How it is done: as §1, §2

T1 sequence (Q09472 323-423): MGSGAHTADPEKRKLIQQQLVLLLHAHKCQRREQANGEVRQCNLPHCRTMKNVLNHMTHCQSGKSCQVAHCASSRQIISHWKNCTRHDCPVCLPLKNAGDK

In the case of `CN1C(=O)[C@]2(Cc3ccc(CCc4ccc(C[C@@]56SS[C@@](CO)(C(=O)N5C)N(C)C6=O)cc4)cc3)SS[C@@]1(CO)C(=O)N2C` (racemic) [LS72, 4,4′-((ethane-1,2-diylbis(4,1-phenylene))bis(methylene))bis(1-(hydroxymethyl)-5,7-dimethyl-2,3-dithia-5,7-diazabicyclo[2.2.2]octane-6,8-dione)], the “hypoxia-inducible promoter activity (luciferase)” value in series [1] was “significant reduction in hypoxia-inducible promoter activity”. Also, the “direct binding to GST-CH1-p300 (in words)” value in series [2] is on record as “bind directly”. In addition, in series [2] (in the presence of DTT, read-out: rate of association (ka)), the kon stood at 4250 M⁻¹ s⁻¹. Moreover, the dissociation constant Kd in series [2] (off rate/on rate, read-out: binding constant KD) was determined as 3.62 µM. Further, the “effect on VEGF mRNA level (in words)” value in the series with VEGF mRNA in MCF7 cells is on record as “downregulated VEGF”. The concentration for a half-maximal effect (EC50) in series [3] is over 10 µM. For the same compound, the half-maximal effective concentration (EC50) at 48 h in series [4] came to 2.8 µM.
